According to patent publication US9133168B2, “Pyrimidine derivatives, preparation thereof, and pharmaceutical use thereof as akt(pkb) phosphorylation inhibitors” (SANOFI, priority 2010, dated 2015):

These molecules were tested on AKT protein phosphorylated on serine 473 (P-AKT-S473) in PC3 human prostate carcinoma cells (assay: pAKT expression in PC3 human prostate carcinoma cells, MSD Multi-spot Biomarker detection (Test A)). Details: Homo sapiens, PC-3, PC3 cells, 1 to 2 h incubation, P-AKT-S473, absolute IC50, mean of two independent experiments.
Type: cell-based
In short: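 Lysate pAKT-S473 measured by electrochemiluminescent sandwich immunoassay; inhibition versus cell-free background and DMSO-only wells, IC50 averaged over two experiments.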
`O=C(Cc1nc(N2CCOCC2)cc(=O)n1C1CC1)N1CCc2c(Cl)cccc21` [Example 15d, 2-[2-(4-chloro-2,3-dihydro-1H-indol-1-yl)-2-oxoethyl]-3-cyclopropyl-6-(morpholin-4-yl)pyrimidin-4(3H)-one] was tested, and the IC50 was 37 nM.
For `O=C(Cc1nc(N2CCOCC2)cc(=O)[nH]1)N1c2ccccc2C2CCCC21` (centres unmarked) [Example 16d, 6-(morpholin-4-yl)-2-[2-oxo-2-(2,3,3a,8b-tetrahydrocyclopenta[b]indol-4(1H)-yl)ethyl]pyrimidin-4(3H)-one], the IC50 was 30 nM.
`CS(=O)(=O)N1CCN(Cc2cccc3c2CCN3C(=O)Cc2nc(N3CCOCC3)cc(=O)[nH]2)CC1` [Example 17d, 2-[2-(4-{[4-(methylsulfonyl)piperazin-1-yl]methyl}-2,3-dihydro-1H-indol-1-yl)-2-oxoethyl]-6-(morpholin-4-yl)pyrimidin-4(3H)-one] showed an IC50 of 259 nM.
With `CC1Cc2c(Cl)cccc2N1C(=O)Cc1nc(N2CCOCC2)c(F)c(=O)[nH]1` (stereo not drawn) [Example 18a, 5-fluoro-2-[2-((+)-4-chloro-2-methyl-2,3-dihydroindol-1-yl)-2-oxoethyl]-6-morpholin-4-yl-3H-pyrimidin-4-one] the IC50 was 38 nM.
`[2H]C1([2H])COCC([2H])([2H])N1c1cc(=O)[nH]c(CC(=O)N2CC(C)(C)c3ccccc32)n1` [Example 18b, 2-[2-(3,3-dimethyl-2,3-dihydroindol-1-yl)-2-oxoethyl]-6-morpholin(D4)-4-yl-3H-pyrimidin-4-one] showed an IC50 of 91 nM.
For `CN1CCN(Cc2cccc3c2CCN3C(=O)Cc2nc(N3CCOCC3)cc(=O)[nH]2)CC1` [Example 18d, 2-(2-{4-[(4-methylpiperazin-1-yl)methyl]-2,3-dihydro-1H-indol-1-yl}-2-oxoethyl)-6-(morpholin-4-yl)pyrimidin-4(3H)-one], the IC50 was 272 nM.
Work on `O=C(Cc1nc(N2CCOCC2)cc(=O)[nH]1)N1CCc2c(-c3ccccc3F)cccc21` [Example 19d, 2-{2-[4-(2-fluorophenyl)-2,3-dihydro-1H-indol-1-yl]-2-oxoethyl}-6-(morpholin-4-yl)pyrimidin-4(3H)-one] yielded an IC50 of 23 nM.
`CN1CCN(Cc2cccc3c2CCN3C(=O)Cc2nc(N3CCOCC3)cc(=O)n2C)CC1` [Example 20d, 3-methyl-2-(2-{4[(4-methylpiperazin-1-yl)methyl]-2,3-dihydro-1H-indol-1-yl}-2-oxoethyl)-6-(morpholin-4-yl)pyrimidin-4(3H)-one] gave an IC50 of 520 nM.
In the case of `O=C(Cc1nc(N2CCOCC2)cc(=O)[nH]1)N1CC2(CCOCC2)c2ccccc21` [Example 21d, 6-(morpholin-4-yl)-2-[2-oxo-2-(2′,3′,5′,6′-tetrahydrospiro[indole-3,4′-pyran]-1(2H)-yl)ethyl]pyrimidin-4(3H)-one], the IC50 is reported as 155 nM.
For `Cn1c(CC(=O)N2CC3(CCOCC3)c3ccccc32)nc(N2CCOCC2)cc1=O` [Example 22d, 3-methyl-6-(morpholin-4-yl)-2-[2-oxo-2-(2′,3′,5′,6′-tetrahydrospiro[indole-3,4′-pyran]-1(2H)-yl)ethyl]pyrimidin-4(3H)-one], the IC50 was 106 nM.
Molecule `Cc1cc(-c2cc(=O)[nH]c(CC(=O)N3CCc4c(F)cccc43)n2)ccn1` [Example 23b, 2-[2-(4-fluoro-2,3-dihydroindol-1-yl)-2-oxoethyl]-6-(2-methylpyridin-4-yl)-3H-pyrimidin-4-one] has an IC50 of 244 nM.
Molecule `Cn1c(CC(=O)N2CC3(CCNCC3)c3ccccc32)nc(N2CCOCC2)cc1=O` [Example 23d, 3-methyl-6-(morpholin-4-yl)-2-[2-oxo-2-(spiro[indole-3,4′-piperidin]-1(2H)-yl)ethyl]pyrimidin-4(3H)-one] has an IC50 of 196 nM.
Work on `O=C(Cc1nc(-c2ccnc(F)c2)cc(=O)[nH]1)N1CCc2c(F)cccc21` [Example 24b, 2-[2-(4-Fluoro-2,3-dihydroindol-1-yl)-2-oxoethyl]-6-(2-fluoropyridin-4-yl)-3H-pyrimidin-4-one] yielded an IC50 of 2860 nM.
In the case of `CC1Cc2cc(F)c(F)cc2N1C(=O)Cc1nc(N2CCOCC2)c(F)c(=O)n1C` (stereo not drawn) [Example 26a, 5-fluoro-2-[2-((+)-5,6-difluoro-2-methyl-2,3-dihydroindol-1-yl)-2-oxoethyl]-3-methyl-6-morpholin-4-yl-3H-pyrimidin-4-one], the IC50 is reported as 211 nM.
In the case of `CN1CCN(c2cccc3c2CCN3C(=O)Cc2nc(N3CCOCC3)cc(=O)[nH]2)CC1` [Example 26d, 2-{2-[4-(4-methylpiperazin-1-yl)-2,3-dihydro-1H-indol-1-yl]-2-oxoethyl}-6-(morpholin-4-yl)pyrimidin-4(3H)-one], the IC50 is reported as 167 nM.
In the case of `CC1CN(c2cc(=O)[nH]c(CC(=O)N3CCc4c(Cl)cccc43)n2)CCO1` (centres unmarked) [Example 28b, 2-[2-(4-chloro-2,3-dihydroindol-1-yl)-2-oxoethyl]-6-(2-methylmorpholin-4-yl)-3H-pyrimidin-4-one], the IC50 is reported as 12 nM.
Work on `CC1Cc2c(Br)cccc2N1C(=O)Cc1nc(N2CCOCC2)c(F)c(=O)n1C` (stereo not drawn) [Example 30a, 5-fluoro-2-[2-((+)-4-bromo-2-methyl-2,3-dihydroindol-1-yl)-2-oxoethyl]-3-methyl-6-morpholin-4-yl-3H-pyrimidin-4-one] yielded an IC50 of 16 nM.
`C[C@H]1Cc2ccccc2N1C(=O)Cc1nc(N2CCOC(CF)C2)cc(=O)[nH]1` (stereo partly drawn) [Example 30b, 6-(2-fluoromethylmorpholin-4-yl)-2-[2-((S)-2-methyl-2,3-dihydroindol-1-yl)-2-oxoethyl]-3H-pyrimidin-4-one] gave an IC50 of 44 nM.

Same assay, conditions: PC3 cells, 1 to 2 h incubation, P-AKT-S473, absolute IC50, mean of two independent experiments
`CC1Cc2c(Cl)cccc2N1C(=O)Cc1nc(N2CCOCC2)c(F)c(=O)[nH]1` (centres unmarked) [Example 19a] was tested, and the IC50 was 19 nM.
`C[C@H]1Cc2ccccc2N1C(=O)Cc1nc(N2CCOCC2)cc(=O)[nH]1` [Example 19b, (+)-2-[2-(2-methyl-2,3-dihydroindol-1-yl)-2-oxoethyl]-6-morpholin(D4)-4-yl-3H-pyrimidin-4-one] gave an IC50 of 16 nM.
`CC1Cc2c(ccc(F)c2F)N1C(=O)Cc1nc(N2CCOCC2)c(F)c(=O)[nH]1` (stereo not drawn) [Example 20a, 2-[2-((−)-4,5-difluoro-2-methyl-2,3-dihydroindol-1-yl)-2-oxoethyl]-5-fluoro-6-morpholin-4-yl-3H-pyrimidin-4-one] showed an IC50 of 2 nM.
For `C[C@@H]1Cc2ccccc2N1C(=O)Cc1nc(N2CCOCC2)cc(=O)[nH]1` [Example 20b, (−)-2-[2-(2-methyl-2,3-dihydroindol-1-yl)-2-oxoethyl]-6-(2,2,6,6-morpholin-D4)-4-yl-3H-pyrimidin-4-one], the IC50 was 5 nM.
Molecule `CC1Cc2c(ccc(F)c2F)N1C(=O)Cc1nc(N2CCOCC2)c(F)c(=O)[nH]1` (stereo not drawn) [Example 21a, 2-[2-((+)-4,5-difluoro-2-methyl-2,3-dihydroindol-1-yl)-2-oxoethyl]-5-fluoro-6-morpholin-4-yl-3H-pyrimidin-4-one] has an IC50 of 15 nM.
Work on `CC1Cc2cc(F)c(F)cc2N1C(=O)Cc1nc(N2CCOCC2)cc(=O)[nH]1` (stereo not drawn) [Example 21c, 2-{2-[(+)-5,6-difluoro-2-methyl-2,3-dihydro-1H-indol-1-yl]-2-oxoethyl}-6-(morpholin-4-yl)pyrimidin-4(3H)-one] yielded an IC50 of 17 nM.
`CC1Cc2c(F)cccc2N1C(=O)Cc1nc(N2CCOCC2)c(F)c(=O)n1C` (stereo not drawn) [Example 22a, 5-fluoro-2-[2-((+)-4-fluoro-2-methyl-2,3-dihydroindol-1-yl)-2-oxoethyl]-3-methyl-6-morpholin-4-yl-3H-pyrimidin-4-one] showed an IC50 of 98 nM.
`CC1Cc2cc(F)c(F)cc2N1C(=O)Cc1nc(N2CCOCC2)cc(=O)[nH]1` (centres unmarked) [Example 22c] gave an IC50 of 2 nM.
For `CC1Cc2c(F)cccc2N1C(=O)Cc1nc(N2CCOCC2)c(F)c(=O)n1C` (stereo not drawn) [Example 23a, 5-fluoro-2-[2-((−)-4-fluoro-2-methyl-2,3-dihydroindol-1-yl)-2-oxoethyl]-3-methyl-6-morpholin-4-yl-3H-pyrimidin-4-one], the IC50 was 203 nM.
With `CC1Cc2cc(F)c(F)cc2N1C(=O)Cc1nc(N2CCOCC2)cc(=O)n1C` (stereo not drawn) [Example 23c, 2-{2-[(−)-5,6-difluoro-2-methyl-2,3-dihydro-1H-indol-1-yl]-2-oxoethyl}-3-methyl-6-(morpholin-4-yl)pyrimidin-4(3H)-one] the IC50 was 32 nM.
With `CC1Cc2c(ccc(F)c2F)N1C(=O)Cc1nc(N2CCOCC2)c(F)c(=O)n1C` (stereo not drawn) [Example 24a, 5-fluoro-2-[2-((−)-4,5-difluoro-2-methyl-2,3-dihydroindol-1-yl)-2-oxoethyl]-3-methyl-6-morpholin-4-yl-3H-pyrimidin-4-one] the IC50 was 310 nM.
In the case of `CC1Cc2cc(F)c(F)cc2N1C(=O)Cc1nc(N2CCOCC2)cc(=O)n1C` (stereo not drawn) [Example 24c, 2-{2-[(+)-5,6-difluoro-2-methyl-2,3-dihydro-1H-indol-1-yl]-2-oxoethyl}-3-methyl-6-(morpholin-4-yl)pyrimidin-4(3H)-one], the IC50 is reported as 114 nM.
Work on `CC1Cc2c(ccc(F)c2F)N1C(=O)Cc1nc(N2CCOCC2)c(F)c(=O)n1C` (stereo not drawn) [Example 25a, 5-fluoro-2-[2-((+)-4,5-difluoro-2-methyl-2,3-dihydroindol-1-yl)-2-oxoethyl]-3-methyl-6-morpholin-4-yl-3H-pyrimidin-4-one] yielded an IC50 of 98 nM.
In the case of `CC1Cc2cc(F)c(F)cc2N1C(=O)Cc1nc(N2CCOCC2)c(F)c(=O)n1C` (stereo not drawn) [Example 27a, 5-fluoro-2-[2-((−)-5,6-difluoro-2-methyl-2,3-dihydroindol-1-yl)-2-oxoethyl]-3-methyl-6-morpholin-4-yl-3H-pyrimidin-4-one], the IC50 is reported as 270 nM.
`CC1Cc2c(Cl)cccc2N1C(=O)Cc1nc(N2CCOCC2)c(F)c(=O)n1C` (stereo not drawn) [Example 28a, 5-fluoro-2-[2-((+)-4-chloro-2-methyl-2,3-dihydroindol-1-yl)-2-oxoethyl]-3-methyl-6-morpholin-4-yl-3H-pyrimidin-4-one] showed an IC50 of 476 nM.
Work on `CC1Cc2c(Cl)cccc2N1C(=O)Cc1nc(N2CCOCC2)c(F)c(=O)n1C` (stereo not drawn) [Example 29a, 5-fluoro-2-[2-((−)-4-chloro-2-methyl-2,3-dihydroindol-1-yl)-2-oxoethyl]-3-methyl-6-morpholin-4-yl-3H-pyrimidin-4-one] yielded an IC50 of 20 nM.
`CC1Cc2c(Br)cccc2N1C(=O)Cc1nc(N2CCOCC2)c(F)c(=O)n1C` (stereo not drawn) [Example 31a, 5-fluoro-2-[2-((−)-4-bromo-2-methyl-2,3-dihydroindol-1-yl)-2-oxoethyl]-3-methyl-6-morpholin-4-yl-3H-pyrimidin-4-one] was tested, and the IC50 was 15 nM.
